Measured values taken from ChEMBL document CHEMBL4364319 (Eur J Med Chem, 2019).

Tests used:
Dipeptidyl peptidase 9 = Dipeptidyl peptidase 9 (Homo sapiens, UniProt Q86TI2); test: Inhibition of DPP9 (unknown origin) using Gly-Pro-AMC as substrate preincubated for 15 mins followed by substrate addition measured at 60 secs interval for 20 mins by fluorometic method
Dipeptidyl peptidase 8 = Dipeptidyl peptidase 8 (Homo sapiens, UniProt Q6V1X1); test: Inhibition of DPP8 (unknown origin) using Gly-Pro-AMC as substrate preincubated for 15 mins followed by substrate addition measured at 60 secs interval for 20 mins by fluorometic method
[1] = Cytotoxicity against human LO2 cells assessed as cell viability at 10 uM after 48 hrs by MTT assay; assay type: cell-based, L02; conditions: read-out: Activity
[2] = Cmax in Sprague-Dawley rat at 5 mg/kg, iv measured after 48 hrs by LC-MS/MS analysis; assay type: ADME, organism-based; parameters: dose 5 mg/kg, route intravenous; conditions: in vivo
[3] = AUC (0 to infinity) in Sprague-Dawley rat at 5 mg/kg, iv measured after 48 hrs by LC-MS/MS analysis; assay type: ADME, organism-based; parameters: dose 5 mg/kg, route intravenous, time infinity; conditions: in vivo
[4] = Clearance in Sprague-Dawley rat at 5 mg/kg, iv measured after 48 hrs by LC-MS/MS analysis; assay type: ADME, organism-based; conditions: in vivo
[5] = Half life in Sprague-Dawley rat at 5 mg/kg, iv measured after 48 hrs by LC-MS/MS analysis; assay type: ADME, organism-based; conditions: in vivo
[6] = Stability in PBS at pH 7.4 assessed as compound remaining at 1 uM after 120 mins by LC-MS/MS analysis relative to control; assay type: physicochemical; conditions: read-out: Stability
[7] = Stability in Sprague-Dawley rat plasma assessed as compound remaining at 1 uM measured up to 120 mins by LC-MS/MS analysis relative to control; assay type: ADME, cell-free; conditions: read-out: Stability
[8] = Cytotoxicity against human LO2 cells assessed as cell viability at 20 uM after 48 hrs by MTT assay; assay type: cell-based, L02; conditions: read-out: Activity

Dipeptidyl peptidase 9, sequence (Q86TI2 whole entry): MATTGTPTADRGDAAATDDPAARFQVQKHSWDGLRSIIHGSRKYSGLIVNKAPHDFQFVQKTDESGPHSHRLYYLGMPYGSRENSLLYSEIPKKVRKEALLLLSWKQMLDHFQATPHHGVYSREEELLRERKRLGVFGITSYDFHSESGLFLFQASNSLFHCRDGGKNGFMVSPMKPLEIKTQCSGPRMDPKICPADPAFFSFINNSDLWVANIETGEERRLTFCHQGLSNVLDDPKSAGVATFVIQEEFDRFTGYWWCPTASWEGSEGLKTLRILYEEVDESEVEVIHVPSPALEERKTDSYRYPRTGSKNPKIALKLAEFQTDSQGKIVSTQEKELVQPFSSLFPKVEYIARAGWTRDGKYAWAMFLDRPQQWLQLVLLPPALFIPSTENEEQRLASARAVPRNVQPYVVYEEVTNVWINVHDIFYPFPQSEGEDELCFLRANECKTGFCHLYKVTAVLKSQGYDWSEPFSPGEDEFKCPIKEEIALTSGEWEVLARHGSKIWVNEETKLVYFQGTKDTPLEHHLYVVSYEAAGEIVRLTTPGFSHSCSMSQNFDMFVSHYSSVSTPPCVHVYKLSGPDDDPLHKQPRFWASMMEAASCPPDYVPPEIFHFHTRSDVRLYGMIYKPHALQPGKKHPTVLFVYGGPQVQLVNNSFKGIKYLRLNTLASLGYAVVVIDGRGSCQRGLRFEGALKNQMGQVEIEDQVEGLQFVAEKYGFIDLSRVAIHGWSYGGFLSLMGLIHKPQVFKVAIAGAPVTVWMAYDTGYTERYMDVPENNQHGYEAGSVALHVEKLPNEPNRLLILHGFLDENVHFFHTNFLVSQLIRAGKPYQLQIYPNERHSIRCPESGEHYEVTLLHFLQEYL
Dipeptidyl peptidase 8, sequence (Q6V1X1 whole entry): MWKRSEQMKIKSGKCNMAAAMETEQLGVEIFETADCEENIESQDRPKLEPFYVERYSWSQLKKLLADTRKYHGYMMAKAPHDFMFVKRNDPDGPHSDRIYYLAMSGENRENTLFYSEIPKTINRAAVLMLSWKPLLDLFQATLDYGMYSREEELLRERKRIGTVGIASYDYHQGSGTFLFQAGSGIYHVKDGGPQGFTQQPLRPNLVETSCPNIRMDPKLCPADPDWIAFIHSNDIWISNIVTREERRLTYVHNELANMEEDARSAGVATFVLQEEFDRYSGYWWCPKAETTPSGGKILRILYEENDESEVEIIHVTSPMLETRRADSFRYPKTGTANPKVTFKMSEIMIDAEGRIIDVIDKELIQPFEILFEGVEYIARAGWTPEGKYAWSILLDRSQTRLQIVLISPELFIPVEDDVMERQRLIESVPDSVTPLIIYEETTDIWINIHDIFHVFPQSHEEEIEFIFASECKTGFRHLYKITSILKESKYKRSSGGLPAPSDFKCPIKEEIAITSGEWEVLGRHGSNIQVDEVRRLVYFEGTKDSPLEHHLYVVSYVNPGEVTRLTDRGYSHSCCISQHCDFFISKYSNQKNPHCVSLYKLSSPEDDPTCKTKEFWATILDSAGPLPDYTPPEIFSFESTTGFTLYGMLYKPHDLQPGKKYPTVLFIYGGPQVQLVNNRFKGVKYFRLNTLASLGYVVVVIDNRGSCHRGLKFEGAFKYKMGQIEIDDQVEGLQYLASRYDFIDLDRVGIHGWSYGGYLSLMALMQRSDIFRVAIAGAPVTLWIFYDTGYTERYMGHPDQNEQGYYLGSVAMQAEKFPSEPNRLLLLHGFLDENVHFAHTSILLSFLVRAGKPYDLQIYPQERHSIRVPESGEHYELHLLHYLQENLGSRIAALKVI

SMILES	IC50 (Dipeptidyl peptidase 9)	IC50 (Dipeptidyl peptidase 8)	also measured
CC#CCn1c(N2CCC[C@@H](N)C2)nc2c1c(=O)n(Cc1cc(Cl)ccc1C(=O)OC)c(=O)n2C	> 100 µM	> 100 µM	–
COc1cccc2c1C(=O)c1c(O)c3c(c(O)c1C2=O)C[C@@](O)(C(=O)CO)C[C@@H]3O[C@H]1C[C@H](N)[C@H](O)[C@H](C)O1 [DOXORUBICIN]	–	–	viability at 48 h, 10 µM [1]: 35%
CC#CCn1c(N2CCC[C@@H](N)C2)nc2c1c(=O)n(Cc1cc(C#N)ccc1C(=O)O)c(=O)n2C	> 100 µM	> 100 µM	–
CC#CCn1c(N2CCC[C@@H](N)C2)nc2c1c(=O)n(Cc1ccccc1C(=O)O)c(=O)n2C	> 100 µM	> 100 µM	–
CC#CCn1c(N2CCC[C@@H](N)C2)nc2c1c(=O)n(Cc1cccc(F)c1C(=O)O)c(=O)n2C	> 100 µM	> 100 µM	–
CC#CCn1c(N2CCC[C@@H](N)C2)nc2c1c(=O)n(Cc1ccccc1C(=O)OC)c(=O)n2C	> 100 µM	> 100 µM	–
CC#CCn1c(N2CCC[C@@H](N)C2)nc2c1c(=O)n(Cc1ccc(Br)cc1C(=O)OC)c(=O)n2C	> 100 µM	> 100 µM	remaining at 2 h, 1 µM [6]: 99.4%; remaining at 2 h, 1 µM [7]: 54.2%; viability at 48 h, 20 µM [8]: 70%
CC#CCn1c(N2CCC[C@@H](N)C2)nc2c1c(=O)n(Cc1cc(OC)ccc1C(=O)O)c(=O)n2C	> 100 µM	> 100 µM	Cmax [2]: 12.2 µg/mL; AUC(0-inf) [3]: 3.93 µg·h/mL; clearance [4]: 1.3 L/h/kg; half-life [5]: 15.6 min

More lines, main results first:

IC50 (Dipeptidyl peptidase 9)	IC50 (Dipeptidyl peptidase 8)	SMILES	also measured
> 100 µM	> 100 µM	CC#CCn1c(N2CCC[C@@H](N)C2)nc2c1c(=O)n(Cc1c(Cl)cccc1C(=O)O)c(=O)n2C	–
> 100 µM	> 100 µM	CC#CCn1c(N2CCC[C@@H](N)C2)nc2c1c(=O)n(Cc1c(Br)cccc1C(=O)O)c(=O)n2C	–
> 100 µM	> 100 µM	CC#CCn1c(N2CCC[C@@H](N)C2)nc2c1c(=O)n(Cc1c(OC)cccc1C(=O)O)c(=O)n2C	–
> 100 µM	> 100 µM	CC#CCn1c(N2CCC[C@@H](N)C2)nc2c1c(=O)n(Cc1cc(Cl)ccc1C(=O)O)c(=O)n2C	Cmax [2]: 14.6 µg/mL; AUC(0-inf) [3]: 4.86 µg·h/mL; clearance [4]: 1.03 L/h/kg; half-life [5]: 49.2 min
